“Also recorded” adds a separate entry of the source. Read-outs that look alike come from different tables or passages of the source.
Columns and labels:
EoblOBP6 [1] = target: T1, EoblOBP6 (Ectropis obliqua, UniProt A0A1L2BL92); assay: Fluorescence competitive binding assay (displacement of 1-NPN from recombinant EoblOBP6)
Method: (§1) Fluorescence binding assays were performed on a fluorescence spectrophotometer F-380 (Tianjin, China) with a 1 cm light path quartz cuvette and 10 nm slits for excitation and emission. The excitation wavelength was set at 337 nm, and the emission spectrum was recorded between 390 and 500 nm. Both the fluorescent probe N-phenyl-1-naphthylamine (1-NPN) and the tested chemicals were dissolved in methanol in preparation for 1 mM stock solution. […] The fluorescence intensities at the maximum fluorescence emission were plotted against the free ligand concentration to determine the binding constants. The bound ligand was evaluated from the fluorescence intensity in the assumption of the protein was 100% dynamic, with a stoichiometry of 1:1 (protein: ligand) at saturation. The binding curves were linearized using Scatchard Plot.

EoblOBP6 [2] = target: T1, EoblOBP6; assay: Fluorescence binding assay of probe 1-NPN with recombinant EoblOBP6 (titration, Scatchard plot)
Method: as §1, with “For the ligand binding assays, the tested compounds, including terpenoids, tea volatiles, herbivore-induced plant volatiles and non-volatile tastants, were selected according to the previously reported isolation from the E. obliqua host plant and non-host plant ([Sun X.L. et al., 2014]; [Zhang Z. et al., 2015]). Fluorescence” for “Fluorescence”, “saturation. […]” for “saturation.”, “dissociation constants of competitors” for “binding curves”, “calculated from the corresponding IC50 values following the equation: Ki = (IC50)/(1+(1-NPN)/K1-NPN), where (1-NPN) is the free concentration of 1-NPN and K1-NPN is the dissociation constant of the protein/1-NPN complex.” for “linearized using Scatchard Plot.”

antennae of E. obliqua = test system: antennae of E. obliqua; set-up: method as in Zhang Z. et al., 2015; details: ref Zhang Z. et al., 2015; cited from earlier work
[3] = Table 1 volatiles, calculated from IC50: Ki = (IC50)/(1+(1-NPN)/K1-NPN)
[4] = Table 2 non-volatile tastants, calculated from IC50: Ki = (IC50)/(1+(1-NPN)/K1-NPN)
[5] = Table 2 non-volatile tastants, competitor 2 to 30 μM, 1-NPN and EoblOBP6 both at 2 μM
[6] = Table 1 volatiles, calculated from IC50: Ki = (IC50)/(1+(1-NPN)/K1-NPN), read-out: Ki
[7] = Table 1 volatiles, competitor titrated 2 to 30 μM into 1-NPN and EoblOBP6 both at 2 μM, 50 mM Tris-HCl pH 7.4, read-out: IC50

T1 sequence (A0A1L2BL92 entry or part of it): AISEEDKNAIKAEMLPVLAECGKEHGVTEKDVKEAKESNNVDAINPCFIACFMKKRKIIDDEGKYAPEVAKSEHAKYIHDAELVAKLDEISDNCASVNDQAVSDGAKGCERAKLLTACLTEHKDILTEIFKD

CC1=CC(=O)[C@@H]2C[C@H]1C2(C)C [Verbenone]
Ki (EoblOBP6 [1]; [3]): u.d.

CCCCCCCCCC=O [Decanal]
binding ability to EoblOBP6 in words (EoblOBP6 [1]): could hardly bind
Ki (EoblOBP6 [1]; [3]): u.d.

CC/C=C\CCOC(=O)CCC [(Z)-3-hexenyl butyrate]
Ki (EoblOBP6 [1]; [3]): u.d.

C=C/C(C)=C/CC=C(C)C [β-Ocimene]
Ki (EoblOBP6 [1]; [3]): u.d.

OC[C@H]1O[C@H](O[C@H]2O[C@H](CO)[C@@H](O)[C@H](O)[C@H]2O)[C@H](O)[C@@H](O)[C@@H]1O [Trehalose]
Ki (EoblOBP6 [1]; [4]): u.d.
IC50 (EoblOBP6 [1]; [5]): u.d.

C/C1=C\CC/C(C)=C/CC(C)(C)/C=C/C1 [α-Caryophyllene]
Ki (EoblOBP6 [1]; [6]): 15.6 ± 0.19 µM
IC50 (EoblOBP6 [1]; [7]): 22.4 ± 0.27 µM

O.Oc1cc(O)c2c(c1)O[C@H](c1ccc(O)c(O)c1)[C@@H](O)C2 [Catechin]
Ki (EoblOBP6 [1]; [4]): u.d.
IC50 (EoblOBP6 [1]; [5]): u.d.

OC[C@H]1O[C@@](CO)(O[C@H]2O[C@H](CO)[C@@H](O)[C@H](O)[C@H]2O)[C@@H](O)[C@@H]1O [D-Sucrose]
Ki (EoblOBP6 [1]; [4]): u.d.
IC50 (EoblOBP6 [1]; [5]): u.d.

CC/C=C\CC=O [(Z)-3-hexenal]
Ki (EoblOBP6 [1]; [3]): u.d.

CCCCCCO [1-Hexanol]
binding ability to EoblOBP6 in words (EoblOBP6 [1]): could hardly bind
Ki (EoblOBP6 [1]; [3]): u.d.

CCCCCCOC(C)=O [Hexyl acetate]
binding ability to EoblOBP6 in words (EoblOBP6 [1]): could hardly bind
Ki (EoblOBP6 [1]; [3]): u.d.

CC12CCC(CC1=O)C2(C)C (centres unmarked) [Camphor]
Ki (EoblOBP6 [1]; [3]): u.d.

c1ccc(Nc2cccc3ccccc23)cc1 [1-NPN, N-phenyl-1-naphthylamine]
Kd (EoblOBP6 [2]): 2.7 ± 0.24 µM

CC1=CC[C@@H](C(C)(C)O)CC1 [α-Terpineol]
Ki (EoblOBP6 [1]; [3]): u.d.

O=C[C@H](O)[C@@H](O)[C@H](O)CO [D-Xylose]
Ki (EoblOBP6 [1]; [4]): u.d.
IC50 (EoblOBP6 [1]; [5]): u.d.

c1ccc2[nH]ccc2c1 [Indole]
Ki (EoblOBP6 [1]; [3]): u.d.

N[C@@H](Cc1c[nH]cn1)C(=O)O [L-Histidine]
Ki (EoblOBP6 [1]; [4]): u.d.
IC50 (EoblOBP6 [1]; [5]): u.d.

C=C1[C@H]2CC[C@H](C2)C1(C)C [(+)-Camphene]
Ki (EoblOBP6 [1]; [3]): u.d.

CC(=O)/C=C/C1=C(C)CCCC1(C)C [β-Ionone]
Ki (EoblOBP6 [1]; [3]): u.d.

OC[C@H]1OC(O)[C@H](O)[C@@H](O)[C@@H]1O (stereo partly drawn) [D-Glucose]
Ki (EoblOBP6 [1]; [4]): u.d.
IC50 (EoblOBP6 [1]; [5]): u.d.

C=CC(=C)CCC=C(C)C [β-Myrcene]
Ki (EoblOBP6 [1]; [3]): u.d.

CN1[C@@H]2CC[C@H]1C[C@@H](OC(=O)C(CO)c1ccccc1)C2 (some centres unmarked) [Atropine, reference compound]
Ki (EoblOBP6 [1]; [4]): u.d.
IC50 (EoblOBP6 [1]; [5]): u.d.

OCc1ccccc1O[C@@H]1O[C@H](CO)[C@@H](O)[C@H](O)[C@H]1O [D(-)-Salicin]
Ki (EoblOBP6 [1]; [4]): u.d.
IC50 (EoblOBP6 [1]; [5]): u.d.

O=Cc1ccccc1 [Benzaldehyde]
IC50 (EoblOBP6 [1]): 21.6 ± 0.84 µM
Ki (EoblOBP6 [1]): 15.1 ± 0.58 µM

C=C1CC/C=C(\C)CC[C@@H]2[C@@H]1CC2(C)C [β-Caryophyllene]
Ki (EoblOBP6 [1]; [3]): u.d.

COC(=O)c1ccccc1O [Methyl salicylate]
Ki (EoblOBP6 [1]; [3]): u.d.

C=CC(C)(O)CCC=C(C)CCC=C(C)C (mixture of isomers) [Nerolidol]
IC50 (EoblOBP6 [1]): 15.6 ± 0.76 µM
Ki (EoblOBP6 [1]): 10.9 ± 0.53 µM
binding ability to EoblOBP6 in words (EoblOBP6 [1]): high binding ability

Cn1c(=O)c2[nH]cnc2n(C)c1=O [Theophylline, reference compound]
Ki (EoblOBP6 [1]; [4]): u.d.
IC50 (EoblOBP6 [1]; [5]): u.d.

CC/C=C\CCO [(Z)-3-hexenol]
binding ability to EoblOBP6 in words (EoblOBP6 [1]): could hardly bind
Ki (EoblOBP6 [1]; [3]): u.d.

CC/C=C\CCOC(C)=O [(Z)-3-hexenyl acetate]
Ki (EoblOBP6 [1]; [3]): u.d.

COc1ccc2cc3[n+](cc2c1OC)CCc1cc2c(cc1-3)OCO2 [Berberine]
IC50 (EoblOBP6 [1]): 7.94 ± 0.61 µM
Ki (EoblOBP6 [1]): 5.55 ± 0.87 µM
binding ability to EoblOBP6 in words (EoblOBP6 [1]): tightly bound; also recorded: bind strongly

CCCCCCCCC=O [Nonanal]
Ki (EoblOBP6 [1]; [3]): u.d.

Cn1c(=O)c2c(ncn2C)n(C)c1=O [Caffeine, reference compound]
Ki (EoblOBP6 [1]; [4]): u.d.
IC50 (EoblOBP6 [1]; [5]): u.d.

N#CCc1ccccc1 [Benzyl nitrile]
Ki (EoblOBP6 [1]; [3]): u.d.

OCc1ccccc1 [Benzyl alcohol]
Ki (EoblOBP6 [1]; [3]): u.d.

CC/C=C\CCOC(=O)CCCCC [(Z)-3-hexenyl hexanoate]
Ki (EoblOBP6 [1]; [3]): u.d.

C=CC(C)(O)CCC=C(C)C (centres unmarked) [Linalool]
Ki (EoblOBP6 [1]; [3]): u.d.

CCC/C=C/C=O [(E)-2-hexenal]
Ki (EoblOBP6 [1]; [3]): u.d.

C=C1CCC2CC1C2(C)C (stereo not drawn) [(-)-β-Pinene]
Ki (EoblOBP6 [1]; [3]): u.d.

CC1=CCC2CC1C2(C)C (stereo not drawn) [α-Pinene]
Ki (EoblOBP6 [1]; [3]): u.d.

CC1=CCC(C(C)C)=CC1 [γ-Terpinene]
Ki (EoblOBP6 [1]; [3]): u.d.

CC1=CC=C(C(C)C)CC1 [α-Terpinene]
IC50 (EoblOBP6 [1]): 26.2 ± 0.53 µM
Ki (EoblOBP6 [1]): 18.3 ± 0.37 µM
electrophysiological responses from the antennae (antennae of E. obliqua): strong electrophysiological responses

CC1=C[C@H](O)[C@H]2C[C@@H]1C2(C)C (relative stereo) [cis-Verbenol]
Ki (EoblOBP6 [1]; [3]): u.d.

C[C@H](N)C(=O)O [L-Alanine]
Ki (EoblOBP6 [1]; [4]): u.d.
IC50 (EoblOBP6 [1]; [5]): u.d.

C=C/C(C)=C/C/C=C(\C)CCC=C(C)C [α-Farnesene]
binding ability to EoblOBP6 in words (EoblOBP6 [1]): high binding ability
Ki (EoblOBP6 [1]; [6]): 11 ± 0.29 µM
IC50 (EoblOBP6 [1]; [7]): 15.8 ± 0.42 µM

C=C(C)[C@H]1CC=C(C)CC1 [Limonene]
Ki (EoblOBP6 [1]; [3]): u.d.

— PMC5967201, “The Odorant Binding Protein 6 Expressed in Sensilla Chaetica Displays Preferential Binding Affinity to Host Plants Volatiles in Ectropis obliqua” (Frontiers in Physiology, 2018)
